Test results as given in ChEMBL document CHEMBL1151667, “Chlorochimaphilin: a new antibiotic from Moneses uniflora” (1996).
In brackets after ≈: the same amount, converted by molar mass. Activity calls are given as the source filed them. No cut-off for these calls is given here.

How the values were obtained:
Staphylococcus aureus [1] = assay: Antimicrobial activity against Staphylococcus aureus RN4220 after 24 hrs by twofold serial microbroth dilution assay; format: functional
Staphylococcus aureus [2] = assay: Antimicrobial activity against Staphylococcus aureus SAP00017 after 24 hrs by twofold serial microbroth dilution assay; format: functional
Pseudomonas aeruginosa [3] = assay: Antimicrobial activity against Pseudomonas aeruginosa K799 after 24 hrs by twofold serial microbroth dilution assay; format: functional
Pseudomonas aeruginosa [4] = assay: Antimicrobial activity against Pseudomonas aeruginosa Z61 after 24 hrs by twofold serial microbroth dilution assay; format: functional
Escherichia coli [5] = assay: Antimicrobial activity against Escherichia coli DC2 after 24 hrs by twofold serial microbroth dilution assay; format: functional
Candida albicans [6] = assay: Antimicrobial activity against Candida albicans CAND105 after 48 hrs by twofold serial microbroth dilution assay; format: functional
Bacillus subtilis [7] = assay: Antimicrobial activity against Bacillus subtilis Vernon after 24 hrs by twofold serial microbroth dilution assay; format: functional
Bacillus subtilis [8] = assay: Antimicrobial activity against Bacillus subtilis Vernon at <=800 ug/ml after 24 hrs by twofold serial microbroth dilution assay; format: functional, organism-based
Staphylococcus aureus [9] = assay: Antimicrobial activity against Staphylococcus aureus SAP00017 at <=800 ug/ml after 24 hrs by twofold serial microbroth dilution assay; format: functional, organism-based
Escherichia coli [10] = assay: Antimicrobial activity against Escherichia coli DC2 at <=800 ug/ml after 24 hrs by twofold serial microbroth dilution assay; format: functional, organism-based
Pseudomonas aeruginosa [11] = assay: Antimicrobial activity against Pseudomonas aeruginosa K799 at <=800 ug/ml after 24 hrs by twofold serial microbroth dilution assay; format: functional, organism-based
Pseudomonas aeruginosa [12] = assay: Antimicrobial activity against Pseudomonas aeruginosa Z61 at <=800 ug/ml after 24 hrs by twofold serial microbroth dilution assay; format: functional, organism-based
Candida albicans [13] = assay: Antimicrobial activity against Candida albicans CAND105 at <=800 ug/ml after 48 hrs by twofold serial microbroth dilution assay; format: functional, organism-based
Escherichia coli [14] = assay: Antimicrobial activity against Escherichia coli UB1005 at <=800 ug/ml after 24 hrs by twofold serial microbroth dilution assay; format: functional, organism-based
Staphylococcus aureus [15] = assay: Antimicrobial activity against Staphylococcus aureus RN4220 at <=800 ug/ml after 24 hrs by twofold serial microbroth dilution assay; format: functional, organism-based
[16] = tested on: Mycobacterium tuberculosis; assay: Antimicrobial activity against Mycobacterium tuberculosis 107 ATCC 35801 at 100 ug/disk after 4 weeks by disk diffusion method; format: functional, organism-based
Yarrowia lipolytica = assay: Antimicrobial activity against Candida lipolytica after 48 hrs by twofold serial microbroth dilution assay; format: functional
Saccharomyces cerevisiae = assay: Antimicrobial activity against Saccharomyces cerevisiae after 48 hrs by twofold serial microbroth dilution assay; format: functional
Aspergillus flavus = assay: Antimicrobial activity against Aspergillus flavus after 48 hrs by twofold serial microbroth dilution assay; format: functional
Fusarium tricinctum = assay: Antimicrobial activity against Fusarium tricinctum after 48 hrs by twofold serial microbroth dilution assay; format: functional
Nannizzia gypsea = assay: Antimicrobial activity against Microsporum gypseum after 48 hrs by twofold serial microbroth dilution assay; format: functional
Aspergillus fumigatus = assay: Antimicrobial activity against Aspergillus fumigatus after 48 hrs by twofold serial microbroth dilution assay; format: functional
Candida albicans [17] = assay: Antimicrobial activity against Candida albicans after 48 hrs by twofold serial microbroth dilution assay; format: functional
Mycobacterium avium = assay: Antimicrobial activity against Mycobacterium avium 724 ATCC 25291 at 100 ug/disk after 2 weeks by disk diffusion method; format: functional, organism-based
Human alphaherpesvirus 1 = assay: Antiviral activity against Herpes simplex virus 1 assessed as effect on virus-induced cytopathic effect at 200 ug/ml after 3 days; format: functional, organism-based
[18] = tested on: Respiratory syncytial virus; assay: Antiviral activity against Respiratory syncytial virus assessed as effect on virus-induced cytopathic effect at 200 ug/ml after 3 days; format: functional, organism-based
Escherichia coli [19] = assay: Antimicrobial activity against Escherichia coli UB1005 after 24 hrs by twofold serial microbroth dilution assay; conditions: UB1005, 24 h

Molecule | MIC (Staphylococcus aureus [2]) [µg/mL] | MIC (Pseudomonas aeruginosa [3]) [µg/mL] | MIC (Pseudomonas aeruginosa [4]) [µg/mL] | MIC (Escherichia coli [5]) [µg/mL] | MIC (Candida albicans [6]) [µg/mL] | MIC (Bacillus subtilis [7]) [µg/mL] | Activity (Bacillus subtilis [8]) | Activity (Staphylococcus aureus [9]) | Activity (Escherichia coli [10]) | Activity (Pseudomonas aeruginosa [11]) | Activity (Pseudomonas aeruginosa [12]) | Activity (Candida albicans [13]) | Activity (Escherichia coli [14]) | Activity (Staphylococcus aureus [15]) | MIC (Staphylococcus aureus [1]; RN4220, 24 h) [µg/mL] | MIC (Yarrowia lipolytica) [µg/mL] | MIC (Saccharomyces cerevisiae) [µg/mL] | MIC (Aspergillus flavus) [µg/mL] | MIC (Fusarium tricinctum) [µg/mL] | MIC (Escherichia coli [19]) [µg/mL] | also measured
GENTAMICIN | > 32 | 1 | 0.3 | 1 | > 32 | 16 | – | – | – | – | – | – | – | – | – | – | – | – | – | – | MIC (Staphylococcus aureus [1]): 0.3 µg/mL
Cc1ccc2c(O[C@@H]3O[C@@H](C)[C@H](O)[C@@H](O)[C@H]3O)c(O)c(C)c(O)c2c1 | – | – | – | – | – | – | inactive | inactive | inactive | inactive | inactive | inactive | inactive | inactive | – | – | – | – | – | – | –
CC1=C(O)C(=O)c2ccc(C)cc2C1=O | 800 (≈ 3960 µM) | > 800 | > 800 | > 800 | 80 (≈ 396 µM) | 800 (≈ 3960 µM) | – | – | – | – | – | – | – | – | 400 (≈ 1980 µM) | 25 (≈ 124 µM) | > 100 | 100 (≈ 495 µM) | 25 (≈ 124 µM) | > 800 | Activity [16]: inactive; MIC (Nannizzia gypsea): 12.5 µg/mL (≈ 61.8 µM); MIC (Aspergillus fumigatus): 50 µg/mL (≈ 247 µM); MIC (Candida albicans [17]): 50 µg/mL (≈ 247 µM); Activity (Mycobacterium avium): inactive; Activity (Human alphaherpesvirus 1): inactive; Activity [18]: inactive
CC1=CC(=O)c2ccc(C)cc2C1=O [CHIMAPHILIN] | 25 (≈ 134 µM) | > 800 | > 800 | > 800 | 400 (≈ 2150 µM) | 50 (≈ 269 µM) | – | – | – | – | – | – | – | – | 25 (≈ 134 µM) | 50 (≈ 269 µM) | 50 (≈ 269 µM) | 25 (≈ 134 µM) | 12.5 (≈ 67.1 µM) | > 800 | Activity [16]: inactive; MIC (Nannizzia gypsea): 6.2 µg/mL (≈ 33.3 µM); MIC (Aspergillus fumigatus): 50 µg/mL (≈ 269 µM); MIC (Candida albicans [17]): 50 µg/mL (≈ 269 µM); Activity (Mycobacterium avium): inactive; Activity (Human alphaherpesvirus 1): inactive; Activity [18]: inactive
COc1ccc2c(OC(C)=O)cc(OC)c(OC(C)=O)c2c1OC(C)=O | – | – | – | – | – | – | inactive | inactive | inactive | inactive | inactive | inactive | inactive | inactive | – | – | – | – | – | – | –
COc1cccc(OC)c1C(=O)N[C@@H]1C(=O)N2[C@@H]1SC(C)(C)[C@@H]2C(=O)O [METHICILLIN] | 256 (≈ 673 µM) | 256 (≈ 673 µM) | < 4 | < 4 | > 512 | 128 (≈ 336 µM) | – | – | – | – | – | – | – | – | < 4 | – | – | – | – | > 512 | –
C[C@@H]1[C@H](O)[C@@H](C)/C=C/C=C/C=C/C=C/C=C/C=C/C=C/[C@H](O[C@@H]2O[C@H](C)[C@@H](O)[C@H](N)[C@@H]2O)C[C@@H]2O[C@](O)(C[C@@H](O)C[C@@H](O)[C@H](O)CC[C@@H](O)C[C@@H](O)CC(=O)O[C@H]1C)C[C@H](O)[C@H]2C(=O)O [AMPHOTERICIN B] | > 5 | > 5 | > 5 | > 5 | 0.1 (≈ 0.108 µM) | > 5 | – | – | – | – | – | – | – | – | > 5 | – | – | – | – | > 5 | –
CC(=O)Oc1c(C)c(OC(C)=O)c2cc(C)ccc2c1O[C@@H]1O[C@@H](C)[C@H](OC(C)=O)[C@@H](OC(C)=O)[C@H]1OC(C)=O | – | – | – | – | – | – | inactive | inactive | inactive | inactive | inactive | inactive | inactive | inactive | – | – | – | – | – | – | –
CC1=CC(=O)c2ccc(C)c(Cl)c2C1=O | 25 (≈ 113 µM) | > 800 | 400 (≈ 1810 µM) | 800 (≈ 3630 µM) | 50 (≈ 227 µM) | 12.5 (≈ 56.6 µM) | – | – | – | – | – | – | – | – | 200 (≈ 906 µM) | 50 (≈ 227 µM) | 100 (≈ 453 µM) | 25 (≈ 113 µM) | 12.5 (≈ 56.6 µM) | > 800 | Activity [16]: inactive; MIC (Nannizzia gypsea): 3.1 µg/mL (≈ 14 µM); MIC (Aspergillus fumigatus): 25 µg/mL (≈ 113 µM); MIC (Candida albicans [17]): 100 µg/mL (≈ 453 µM); Activity (Mycobacterium avium): inactive; Activity (Human alphaherpesvirus 1): inactive; Activity [18]: inactive
COc1ccc2c(O)cc(OC)c(O)c2c1O | – | – | – | – | – | – | inactive | inactive | inactive | inactive | inactive | inactive | inactive | inactive | – | – | – | – | – | – | –
NYSTATIN | – | – | – | – | – | – | – | – | – | – | – | – | – | – | – | > 10 | 10 | > 10 | 5 | – | MIC (Nannizzia gypsea): 2.5 µg/mL; MIC (Aspergillus fumigatus): 5 µg/mL; MIC (Candida albicans [17]): 10 µg/mL
